Test results reported in patent US11254671B2, “Chemical compounds” (GLAXOSMITHKLINE INTELLECTUAL PROPERTY DEVELOPMENT LIMITED, priority 2017, dated 2022).
Several values for one entry are separate records, joined by “and”; a condition that tells them apart may be missing. Equal values may be shown once.

Target: T1, mTOR (Homo sapiens, UniProt P42345)
T1 construct: capturing of endogenously expressed target proteins from cell extracts by a bead-immobilized capturing ligand; endogenous in cells; host or cells: HuT-78 cells (ECACC 88041901), cell lysate
Assay: mTOR kinobeads assay (competition-binding assay)
Settings: HuT-78 cell extract, endogenously expressed mTOR, bead-immobilized capturing ligand; mean of multiple experiments; read-out: mean pIC50, affinity for mTOR (converted)
Outline: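 Competition binding of endogenous mTOR from HuT-78 cell lysate (250 μg, 5 mg/ml) to immobilized Compound A/C beads, 2 h at 4 °C, pH 7.5, 2% DMSO, 11-point series. Bead-bound mTOR eluted, dot-blotted, detected by anti-mTOR infrared immunofluorescence; normalized to DMSO and 100 μM Compound B controls, 4-parameter fit to pIC50.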

| IC50 | SMILES |
| --- | --- |
| 2.51 to 31.6 nM and 2.51 to 316 nM | CNCc1cc2nc(-c3cc(CS(C)(=O)=O)cc(N4CC5CCC(C4)O5)n3)ccc2[nH]1 [Example 25, ({5-[4-(methanesulfonylmethyl)-6-{8-oxa-3-azabicyclo[3.2.1]octan-3-yl}pyridin-2-yl]-1H-pyrrolo[3,2-b]pyridin-2-yl}methyl)(methyl)amine] |
| 2.51 to 316 nM | CC[C@H]1COCCN1c1cc(C2(S(=O)(=O)C3CC3)CC2)cc(-c2ccc3[nH]c(CNC)cc3n2)n1 [Example 11, (S)-1-(5-(4-(1-(cyclopropylsulfonyl)cyclopropyl)-6-(3-ethylmorpholino)pyridin-2-yl)-1H-pyrrolo[3,2-b]pyridin-2-yl)-N-methylmethanamine] |
| 2.51 to 31.6 nM and 2.51 to 316 nM | CNCc1cc2nc(-c3cc(C(C)(C)S(C)(=O)=O)cc(N4CC5CCC(C4)O5)n3)ccc2[nH]1 [Example 4, 1-(5-(6-(8-oxa-3-azabicyclo[3.2.1]octan-3-yl)-4-(2-(methylsulfonyl)propan-2-yl)pyridin-2-yl)-1H-pyrrolo[3,2-b]pyridin-2-yl)-N-methylmethanamine] |
